Laboratory results reported in patent US4945097A, “Aryl-cycloalkyl-alkanolamines for treatment of neurotoxic injury” (priority 1987, dated 1990).

Legend:
[1] = tested on: NMA neurotoxicity in 15-day old chick embryo retina; experiment: NMDA/KA Antagonist Assay: prevention of NMA neurotoxicity in chick embryo retina; assay type: cell-based; conditions: Gallus gallus, 0.5 h; NMA 200 μM, retina incubated 30 min at 37° C in BSS, complete protection in all specimens (n>6); read-out: antagonist potency vs NMA: concentration required to totally prevent a neurotoxic reaction
Method: Two agonists were employed in the present test, each at a concentration established previously to be the lowest concentration required to consistently cause a fully-developed retinal lesion: KA (25 μM) and NMA (200 μM). […] Internal controls in each experiment consisted of at least six specimens being incubated with agonist alone. […] The method of tissue preparation was as follows: 15-day old chick embryos were decapitated and their eyes removed and cut into quadrants after excising the cornea and removing the lens, vitreous and iris. The retinal quadrants were then gently separated from the pigment epithelium and incubated for 30 min. at 37° C. in BSS to which an agonist or agonist plus antagonist was added. The BSS contained 140 mM Na^+, 5.0 mM K^+, 0.5 mM Ca^++, 4 5 mM mG^++, 150 mM Cl^-, 5.6 mM glucose and bicarbonate/phosphate buffer (pH 7.3). After incubation for 30 min., the retinal quadrants were fixed by immersion in phosphate-buffered solution containing 1.5% glutaraldehyde and 1% paraformaldehyde, then additionally fixed in 1% osmium tetroxide, dehydrated in graded ethanols, cleared in toluene and embedded in araldite. Sections were cut 1 micron thick on a Sorval ultratome and stained with Methylene blue/Azure 11 for histopathological evaluation by light microscopy.

[2] = tested on: KA neurotoxicity in 15-day old chick embryo retina; experiment: NMDA/KA Antagonist Assay: prevention of KA neurotoxicity in chick embryo retina; assay type: cell-based; parameters: key: --: A dash signifies no antagonist action; conditions: KA 25 μM, retina incubated 30 min at 37° C in BSS
Method: A 15-day old chick embryo retina, incubated for 30 min. in a balanced sat solution (BSS) containing 1 mM Glu, developed a full lesion resembling that described in the immature mouse retina following s.c. administration of Glu. Other excitotoxin agonists also produce acute lesions within 30 min., each agent being effective at a concentration proportional to its known excitatory and toxic potencies. The pattern of cellular degeneration is restricted in each case to the ganglion cell, inner plexiform and inner nuclear layers, but within these areas certain agonists induce different patterns of degeneration, the differences being most pronounced between NMA and KA. Two agonists were employed in the present test, each at a concentration established previously to be the lowest concentration required to consistently cause a fully-developed retinal lesion: KA (25 μM) and NMA (200 μM). Procyclidine, biperiden and trihexyphenidyl were tested at various concentrations for their ability to prevent KA or NMA neurotoxicity. […] Internal controls in each experiment consisted of at least six specimens being incubated with agonist alone. A typical toxic reaction had to be present in all controls and absent from all experimental specimens in order to qualify as a blocking effect. The method of tissue preparation was as follows: 15-day old chick embryos were decapitated and their eyes removed and cut into quadrants after excising the cornea and removing the lens, vitreous and iris. The retinal quadrants were then gently separated from the pigment epithelium and incubated for 30 min. at 37° C. in BSS to which an agonist or agonist plus antagonist was added. The BSS contained 140 mM Na^+, 5.0 mM K^+, 0.5 mM Ca^++, […], 150 mM Cl^-, 5.6 mM glucose and bicarbonate/phosphate buffer (pH 7.3). After incubation for 30 min., the retinal quadrants were fixed by immersion in phosphate-buffered solution containing 1.5% glutaraldehyde and 1% paraformaldehyde, then additionally fixed in 1% osmium tetroxide, dehydrated in graded ethanols, cleared in toluene and embedded in araldite. […]

[3] = tested on: H/I neuronal degeneration in Sprague Dawley rats, 10 days old; assay type: in vivo
Method: A total of 30 Sprague Dawley rats, 10 days old, were used in this assay. Ten pups (5 control and 5 experimental) were studied on each of 3 separate days, the protocol being the same each day. A unilateral carotid ligation was performed under halothane anesthesia, and the incision was closed with super glue. After recovery from anesthesia, the experimental pups were given a subcutaneous injection of procyclidine (50 mg/kg in 0.1 ml aqueous solution, pH 7.4) and controls an equal volume sc injection of normal saline. Immediately thereafter, all 10 of the pups (half control and half experimental) were placed together in a large sealed transparent chamber and a partial vacuum was gradually created (pressure reduced from 760 to 200 mm Hg over a 1 minute period). A water bath surrounding the bottom half of the chamber kept the temperature inside at 38° C. After 75 minutes the pressure was returned gradually to 760 mm Hg over a 1 minute interval and, after a 2 hour observation period, the pups were anesthetized, the neck incision opened and the ligature removed from the carotid (a piece of tubing had originally been placed between the suture and vessel wall to facilitate subsequent removal of the suture without damage to the vessel wall). While still under anesthesia, the pups were sacrificed by perfusion fixation with aldehyde fixatives. Since the ligature had been removed from the occluded carotid, perfusate was able to distribute equally to the two hemispheres. After 15 minutes of perfusion, the brains were removed and sliced in 1 mm thick transverse slabs which were post fixed in osmium tetroxide, dehydrated in graded ethanols, cleared in toluene and embedded flat in araldite [J. W. Olney, "Glutamate-Induced Neuronal Necrosis In The Infant Mouse Hypothalamus: An Electron Microscopic Study", Neuropthol. Exp. Neurol., 30, 75-90 (1971)]. Sections (1 micron thick) were cut at 40 micron intervals and stained with azure II/methylene blue to permit a systematic microscopic evaluation of all regions of interest in each brain. In a large number of control infant rats (n>100) subjected to the above hypobaric/ischemic conditions, there has been shown a 90% survival rate (10% die in the hypobaric chamber) and a 94% incidence of brain damage which is always confined unilaterally to the side of the carotid ligation [J. M. Olney, "Hypoxia-Ischemia Causes Glutamate-Like Neuropathological changes in Infant Rat Brain", Neurosci Abst., 13, 1553 (1987)]. […] The damage in control rats consists of unilateral disseminated acute neuronal degeneration in some or all of the following regions: medial habenulum, dentate hippocampal gyrus, caudate nucleus, olfactory tubercle, islands of calleja, fronto-parietal neocortex and several thalamic nuclei. Two of 15 control and 2 of 15 experimental infants died in the hypobaric chamber. […] Among the 13 surviving procyclidine-treated pups, 10 had no damage in any of the above brain regions, 3 had small attenuated lesions, limited in two pups to the medial habenulum and in one to the caudate. […] Signs such as ataxia, head and body weaving, prostration and respiratory depression, which are sometimes seen in animals treated with antiexcitotoxic drugs, were not observed.

| Compound | EC100 [1] [µM] | antagonist potency vs KA: concentration required to totally prevent a neurotoxic reaction [2] | treated animals with total protection against H/I neuronal degeneration ([3]; 50 mg/kg sc) [%] | number of surviving treated pups with no damage in any of the brain regions ([3]; 50 mg/kg sc, 13 surviving treated pups, carotid ligation plus 75 min hypobaric) | number of surviving treated pups with small attenuated lesions ([3]; 50 mg/kg sc, 13 surviving treated pups, two limited to medial habenulum, one to caudate) | treated animals with markedly reduced severity of neuropathology ([3]; 50 mg/kg sc, the remaining animals) [%] | side effects of the single dose ([3]; rat, in vivo) |
| --- | --- | --- | --- | --- | --- | --- | --- |
| OC(CCN1CCCCC1)(c1ccccc1)C1CC2C=CC1C2 (stereo not drawn) [Biperiden, α-bicyclo[2.2.1]hept-5-en-2-yl-α-phenyl-1-piperidinepropanol] | 200 | -- |  |  |  |  |  |
| OC(CCN1CCCC1)(c1ccccc1)C1CCCCC1 (stereo not drawn) [Procyclidine, α-cyclohexyl-α-phenyl-1-pyrrolidinepropanol] |  | -- | ~80 | 10 | 3 | 20 | minimal side effects |
| OC(CCN1CCCCC1)(c1ccccc1)C1CCCCC1 (stereo not drawn) [Trihexyphenidyl, α-cyclohexyl-α-phenyl-1-piperidinepropanol] | 125 | -- |  |  |  |  |  |
